Organism: Rattus norvegicus
Assay: DrugMatrix - Regimen: Daily Repeat
Assay type: toxicity, organism-based, Sprague-Dawley
Design: regimen Daily Repeat, gender Male, age 6-8 weeks
Conditions: in vivo, po, route oral GAVAGE, vehicle 100 % WATER; for ABSOLUTE BASOPHIL / ABSOLUTE EOSINOPHIL / ABSOLUTE LYMPHOCYTE / ABSOLUTE MONOCYTE / ABSOLUTE SEGMENTED NEUTROPHIL / BASOPHIL / EOSINOPHIL / ERYTHROCYTE COUNT / HEMATOCRIT / HEMOGLOBIN / LEUKOCYTE COUNT / LYMPHOCYTE / MEAN CORPUSCULAR HEMOGLOBIN / MEAN CORPUSCULAR HEMOGLOBIN CONCENTRATION / MEAN CORPUSCULAR VOLUME / MONOCYTE / NEUTROPHIL / NUCLEATED RED BLOOD CELLS / PLATELET COUNT: tissue Blood; for ALANINE AMINOTRANSFERASE / ALBUMIN / ALKALINE PHOSPHATASE / ASPARTATE AMINOTRANSFERASE / BLOOD UREA NITROGEN / CARBON DIOXIDE / CHLORIDE / CHOLESTEROL / CREATINE PHOSPHOKINASE / CREATININE / GLUCOSE / LACTATE DEHYDROGENASE / LIPASE / PHOSPHORUS / POTASSIUM / SODIUM / TOTAL BILIRUBIN / TOTAL PROTEIN / URIC ACID: tissue Plasma
[1] = 0.3 mg/kg, 120 h, dose level Low, time 5 day
[2] = 6 mg/kg, 72 h, dose level High, time 3 day
[3] = 6 mg/kg, 120 h, dose level High, time 5 day

Clc1cccc(Cl)c1N=C1NCCN1 [CLONIDINE]
ABSOLUTE BASOPHIL [1]: 0 CELLS/uL
ABSOLUTE EOSINOPHIL [1]: 0 CELLS/uL
ABSOLUTE LYMPHOCYTE [1]: 12125.33 CELLS/uL
ABSOLUTE MONOCYTE [1]: 52.33 CELLS/uL
ABSOLUTE SEGMENTED NEUTROPHIL [1]: 1322.33 CELLS/uL
BASOPHIL [1]: 0%
EOSINOPHIL [1]: 0%
ERYTHROCYTE COUNT [1]: 5.47 x10E6/uL
HEMATOCRIT [1]: 34.07%
HEMOGLOBIN [1]: 13.73 G/DL
LEUKOCYTE COUNT [1]: 13.5 x10E3/uL
LYMPHOCYTE [1]: 89.33%
MEAN CORPUSCULAR HEMOGLOBIN [1]: 25.13 pg
MEAN CORPUSCULAR HEMOGLOBIN CONCENTRATION [1]: 40.3 G/DL
MEAN CORPUSCULAR VOLUME [1]: 62.3 fL
MONOCYTE [1]: 0.33%
NEUTROPHIL [1]: 10.33%
NUCLEATED RED BLOOD CELLS [1]: 0 /100WBC
PLATELET COUNT [1]: 1266.67 x10E3/uL
ALANINE AMINOTRANSFERASE [1]: 49.67 u/L
ALBUMIN [1]: 4.07 G/DL
ALKALINE PHOSPHATASE [1]: 360 u/L
ASPARTATE AMINOTRANSFERASE [1]: 94 u/L
BLOOD UREA NITROGEN [1]: 19 mg/dL
CARBON DIOXIDE [1]: 27 mmol/L
CHLORIDE [1]: 100.67 MEQ/L
CHOLESTEROL [1]: 70 mg/dL
CREATINE PHOSPHOKINASE [1]: 371.67 u/L
CREATININE [1]: 0.17 mg/dL
GLUCOSE [1]: 134.33 mg/dL
LACTATE DEHYDROGENASE [1]: 289.33 u/L
LIPASE [1]: 9 u/L
PHOSPHORUS [1]: 11.17 mg/dL
POTASSIUM [1]: 6.28 MEQ/L
SODIUM [1]: 140.53 MEQ/L
TOTAL BILIRUBIN [1]: 0.1 mg/dL
TOTAL PROTEIN [1]: 5.57 G/DL
URIC ACID [1]: 1.57 mg/dL
ABSOLUTE BASOPHIL [2]: 0 CELLS/uL
ABSOLUTE EOSINOPHIL [2]: 0 CELLS/uL
ABSOLUTE LYMPHOCYTE [2]: 11339 CELLS/uL
ABSOLUTE MONOCYTE [2]: 767 CELLS/uL
ABSOLUTE SEGMENTED NEUTROPHIL [2]: 6827.33 CELLS/uL
BASOPHIL [2]: 0%
EOSINOPHIL [2]: 0%
ERYTHROCYTE COUNT [2]: 6.6 x10E6/uL
HEMATOCRIT [2]: 40.63%
HEMOGLOBIN [2]: 16.17 G/DL
LEUKOCYTE COUNT [2]: 18.93 x10E3/uL
LYMPHOCYTE [2]: 61.33%
MEAN CORPUSCULAR HEMOGLOBIN [2]: 24.47 pg
MEAN CORPUSCULAR HEMOGLOBIN CONCENTRATION [2]: 39.8 G/DL
MEAN CORPUSCULAR VOLUME [2]: 61.5 fL
MONOCYTE [2]: 4%
NEUTROPHIL [2]: 34.67%
NUCLEATED RED BLOOD CELLS [2]: 0 /100WBC
PLATELET COUNT [2]: 1516.67 x10E3/uL
ALANINE AMINOTRANSFERASE [2]: 61 u/L
ALBUMIN [2]: 3.93 G/DL
ALKALINE PHOSPHATASE [2]: 306.67 u/L
ASPARTATE AMINOTRANSFERASE [2]: 172.33 u/L
BLOOD UREA NITROGEN [2]: 58 mg/dL
CARBON DIOXIDE [2]: 23.33 mmol/L
CHLORIDE [2]: 96 MEQ/L
CHOLESTEROL [2]: 67.33 mg/dL
CREATINE PHOSPHOKINASE [2]: 987.33 u/L
CREATININE [2]: 0.52 mg/dL
GLUCOSE [2]: 154.33 mg/dL
LACTATE DEHYDROGENASE [2]: 310.33 u/L
LIPASE [2]: 8 u/L
PHOSPHORUS [2]: 12.97 mg/dL
POTASSIUM [2]: 6.5 MEQ/L
SODIUM [2]: 140.77 MEQ/L
TOTAL BILIRUBIN [2]: 0.27 mg/dL
TOTAL PROTEIN [2]: 6.13 G/DL
URIC ACID [2]: 2.17 mg/dL
ABSOLUTE BASOPHIL [3]: 0 CELLS/uL
ABSOLUTE EOSINOPHIL [3]: 46 CELLS/uL
ABSOLUTE LYMPHOCYTE [3]: 9488.67 CELLS/uL
ABSOLUTE MONOCYTE [3]: 118.67 CELLS/uL
ABSOLUTE SEGMENTED NEUTROPHIL [3]: 2180 CELLS/uL
BASOPHIL [3]: 0%
EOSINOPHIL [3]: 0.33%
ERYTHROCYTE COUNT [3]: 6.57 x10E6/uL
HEMATOCRIT [3]: 38.83%
HEMOGLOBIN [3]: 15.23 G/DL
LEUKOCYTE COUNT [3]: 11.83 x10E3/uL
LYMPHOCYTE [3]: 81.33%
MEAN CORPUSCULAR HEMOGLOBIN [3]: 23.2 pg
MEAN CORPUSCULAR HEMOGLOBIN CONCENTRATION [3]: 39.23 G/DL
MEAN CORPUSCULAR VOLUME [3]: 59.1 fL
MONOCYTE [3]: 1%
NEUTROPHIL [3]: 17.33%
NUCLEATED RED BLOOD CELLS [3]: 0 /100WBC
PLATELET COUNT [3]: 916 x10E3/uL
ALANINE AMINOTRANSFERASE [3]: 33.67 u/L
ALBUMIN [3]: 4.07 G/DL
ALKALINE PHOSPHATASE [3]: 207 u/L
ASPARTATE AMINOTRANSFERASE [3]: 74 u/L
BLOOD UREA NITROGEN [3]: 20.67 mg/dL
CARBON DIOXIDE [3]: 30.67 mmol/L
CHLORIDE [3]: 104 MEQ/L
CHOLESTEROL [3]: 62.67 mg/dL
CREATINE PHOSPHOKINASE [3]: 177 u/L
CREATININE [3]: 0.25 mg/dL
GLUCOSE [3]: 163 mg/dL
LACTATE DEHYDROGENASE [3]: 128 u/L
LIPASE [3]: 9 u/L
PHOSPHORUS [3]: 8.13 mg/dL
POTASSIUM [3]: 5.61 MEQ/L
SODIUM [3]: 148.9 MEQ/L
TOTAL BILIRUBIN [3]: 0.2 mg/dL
TOTAL PROTEIN [3]: 5.9 G/DL
URIC ACID [3]: 0.7 mg/dL
